Assay: Interfacial tension of lipids against water (measure of polarity)
Type: physicochemical
Settings: lipids below 30 mN/m are regarded as polar
Excerpt: Öle und Fette unterscheiden sich unter anderem in ihrer Polarität, welche schwierig zu definieren ist. Es wurde bereits vorgeschlagen, die Grenzflächenspannung gegenüber Wasser als Maß für den Polaritätsindex eines Öls bzw. einer Ölphase anzunehmen. Dabei gilt, daß die Polarität der betreffenden Ölphase um so größer ist, je niedriger die Grenzflächenspannung zwischen dieser Ölphase und Wasser ist. Erfindungsgemäß wird die Grenzflächenspannung als ein mögliches Maß für die Polarität einer gegebenen Ölkomponente angesehen.
Die Grenzflächenspannung ist diejenige Kraft, die an einer gedachten, in der Grenzfläche zwischen zwei Phasen befindlichen Linie der Länge von einem Meter wirkt. Die physikalische Einheit für diese Grenzflächenspannung errechnet sich klassisch nach der Beziehung Kraft/Länge und wird gewöhnlich in mN/m (Millinewton geteilt durch Meter) wiedergegeben. Sie hat positives Vorzeichen, wenn sie das Bestreben hat, die Grenzfläche zu verkleinern. Im umgekehrten Falle hat sie negatives Vorzeichen. Als polar im Sinne der vorliegenden Erfindung werden Lipide angesehen, deren Grenzflächenspannung gegen Wasser weniger als 30 mN/m beträgt.
Unpolare Öle sind beispielsweise solche, welche gewählt werden aus der Gruppe der verzweigten und unverzweigten Kohlenwasserstoffe und -wachse, insbesondere Vaseline (Petrolatum), Paraffinöl, Squalan und Squalen, Polyolefine und hydrogenierte Polyisobutene. […] Tabelle 1

Compound	Grenzflächenspannungen gegen Wasser
CCCCCCCCOCCCCCCCC [Cetiol® OE, Dicaprylyl Ether]	22,1 mN/m
CCCCCCCCCCCCCCCCCC(=O)OC(C)C [Isopropylstearat, Isopropyl Stearate]	21,9 mN/m
CCCCCCCCOC(=O)CCCCCCCCCCCCCCC(C)C [Prisorine® 2036, Octyl Isostearate]	29,7 mN/m
CCCCCCCCCCCCCCCCCCOC(=O)CCCCCC [Tegosoft® SH, Stearyl Heptanoate]	28,7 mN/m

More lines, now with the values ahead:

Grenzflächenspannungen gegen Wasser	Compound
20,2 mN/m	CCCCCCCC(=O)OCC(COC(=O)CCCCCCC)OC(=O)CCCCCCC [Trivent® OCG, Tricaprylin]
28,4 mN/m	Octyl Stearate [Cetiol® 868]
23,1 mN/m	Octyl Palmitate [Cegesoft® C24]
